Columns and labels:
Test in all cases: Test B preemergence/postemergence greenhouse plant response rating 0 to 10
Conditions in all cases: 0 to 10 scale
barley = type: in vivo, Hordeum vulgare
Summary of the method: (§1)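 Test chemicals, dissolved in a non-phytotoxic solvent, were applied to soil at planting and, at the same time, over foliage of seedlings at the one to four leaf stage.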

barnyardgrass = type: in vivo, Echinochloa crus-galli
Summary of the method: as §1

bedstraw = type: in vivo, Galium aparine
Summary of the method: as §1

blackgrass = type: in vivo, Alopecurus myosuroides
Summary of the method: as §1

cheatgrass = type: in vivo, Bromus secalinus
Summary of the method: as §1

chickweed = type: in vivo, Stellaria media
Summary of the method: as §1

cocklebur = type: in vivo, Xanthium pensylvanicum
Summary of the method: as §1

corn = type: in vivo, Zea mays
Summary of the method: as §1

cotton = type: in vivo, Gossypium hirsutum
Summary of the method: as §1

crabgrass = type: in vivo, Digitaria spp.
Summary of the method: as §1

giant foxtail = type: in vivo, Setaria faberii
Summary of the method: as §1

lambsquarters = type: in vivo, Chenopodium album
Summary of the method: as §1

morningglory = type: in vivo, Ipomoea hederacea
Summary of the method: as §1

rape = type: in vivo, Brassica napus
Summary of the method: as §1

rice = type: in vivo, Oryza sativa
Summary of the method: as §1

sorghum = type: in vivo, Sorghum bicolor
Summary of the method: as §1

soybean = type: in vivo, Glycine max
Summary of the method: as §1

sugar beet = type: in vivo, Beta vulgaris
Summary of the method: as §1

velvetleaf = type: in vivo, Abutilon theophrasti
Summary of the method: as §1

wheat = type: in vivo, Triticum aestivum
Summary of the method: as §1

wild buckwheat = type: in vivo, Polygonum convolvulus
Summary of the method: as §1

wild oat = type: in vivo, Avena fatua
Summary of the method: as §1

purple nutsedge = type: in vivo, Cyperus rotundus
Summary of the method: as §1

COCCN1C(=O)COc2cc(F)c(-c3nn4c(c3Cl)CCCC4)cc21 [Compound 53]
Plant response rating, Barley (barley; POSTEMERGENCE, Rate 10 g/ha): 4
Plant response rating, Barley (barley; POSTEMERGENCE, Rate 50 g/ha): 6
Plant response rating, Barley (barley; PREEMERGENCE, Rate 10 g/ha): 1
Plant response rating, Barley (barley; PREEMERGENCE, Rate 50 g/ha): 1
Plant response rating, Barnyardgrass (barnyardgrass; POSTEMERGENCE, Rate 10 g/ha): 3
Plant response rating, Barnyardgrass (barnyardgrass; POSTEMERGENCE, Rate 50 g/ha): 6
Plant response rating, Barnyardgrass (barnyardgrass; PREEMERGENCE, Rate 10 g/ha): 2
Plant response rating, Barnyardgrass (barnyardgrass; PREEMERGENCE, Rate 50 g/ha): 2
Plant response rating, Bedstraw (bedstraw; POSTEMERGENCE, Rate 10 g/ha): 8
Plant response rating, Bedstraw (bedstraw; POSTEMERGENCE, Rate 50 g/ha): 10
Plant response rating, Bedstraw (bedstraw; PREEMERGENCE, Rate 10 g/ha): 8
Plant response rating, Bedstraw (bedstraw; PREEMERGENCE, Rate 50 g/ha): 9
Plant response rating, Blackgrass (blackgrass; POSTEMERGENCE, Rate 10 g/ha): 5
Plant response rating, Blackgrass (blackgrass; POSTEMERGENCE, Rate 50 g/ha): 5
Plant response rating, Blackgrass (blackgrass; PREEMERGENCE, Rate 10 g/ha): 4
Plant response rating, Blackgrass (blackgrass; PREEMERGENCE, Rate 50 g/ha): 6
Plant response rating, Cheatgrass (cheatgrass; POSTEMERGENCE, Rate 10 g/ha): 5
Plant response rating, Cheatgrass (cheatgrass; POSTEMERGENCE, Rate 50 g/ha): 4
Plant response rating, Cheatgrass (cheatgrass; PREEMERGENCE, Rate 10 g/ha): 3
Plant response rating, Cheatgrass (cheatgrass; PREEMERGENCE, Rate 50 g/ha): 4
Plant response rating, Chickweed (chickweed; POSTEMERGENCE, Rate 10 g/ha): 9
Plant response rating, Chickweed (chickweed; POSTEMERGENCE, Rate 50 g/ha): 9
Plant response rating, Chickweed (chickweed; PREEMERGENCE, Rate 10 g/ha): 10
Plant response rating, Chickweed (chickweed; PREEMERGENCE, Rate 50 g/ha): 10
Plant response rating, Cocklebur (cocklebur; POSTEMERGENCE, Rate 10 g/ha): 9
Plant response rating, Cocklebur (cocklebur; POSTEMERGENCE, Rate 50 g/ha): 10
Plant response rating, Cocklebur (cocklebur; PREEMERGENCE, Rate 10 g/ha): 0
Plant response rating, Cocklebur (cocklebur; PREEMERGENCE, Rate 50 g/ha): 1
Plant response rating, Corn (corn; POSTEMERGENCE, Rate 10 g/ha): 4
Plant response rating, Corn (corn; POSTEMERGENCE, Rate 50 g/ha): 4
Plant response rating, Corn (corn; PREEMERGENCE, Rate 50 g/ha): 0
Plant response rating, Cotton (cotton; POSTEMERGENCE, Rate 10 g/ha): 10
Plant response rating, Cotton (cotton; POSTEMERGENCE, Rate 50 g/ha): 10
Plant response rating, Cotton (cotton; PREEMERGENCE, Rate 10 g/ha): 0
Plant response rating, Cotton (cotton; PREEMERGENCE, Rate 50 g/ha): 2
Plant response rating, Crabgrass (crabgrass; POSTEMERGENCE, Rate 10 g/ha): 3
Plant response rating, Crabgrass (crabgrass; POSTEMERGENCE, Rate 50 g/ha): 4
Plant response rating, Crabgrass (crabgrass; PREEMERGENCE, Rate 10 g/ha): 2
Plant response rating, Crabgrass (crabgrass; PREEMERGENCE, Rate 50 g/ha): 6
Plant response rating, Giant foxtail (giant foxtail; POSTEMERGENCE, Rate 10 g/ha): 3
Plant response rating, Giant foxtail (giant foxtail; POSTEMERGENCE, Rate 50 g/ha): 6
Plant response rating, Giant foxtail (giant foxtail; PREEMERGENCE, Rate 10 g/ha): 2
Plant response rating, Giant foxtail (giant foxtail; PREEMERGENCE, Rate 50 g/ha): 8
Plant response rating, Lambsquarter (lambsquarters; POSTEMERGENCE, Rate 10 g/ha): 10
Plant response rating, Lambsquarter (lambsquarters; POSTEMERGENCE, Rate 50 g/ha): 10
Plant response rating, Lambsquarter (lambsquarters; PREEMERGENCE, Rate 50 g/ha): 10
Plant response rating, Morningglory (morningglory; POSTEMERGENCE, Rate 10 g/ha): 9
Plant response rating, Morningglory (morningglory; POSTEMERGENCE, Rate 50 g/ha): 10
Plant response rating, Morningglory (morningglory; PREEMERGENCE, Rate 50 g/ha): 10
Plant response rating, Rape (rape; POSTEMERGENCE, Rate 10 g/ha): 10
Plant response rating, Rape (rape; POSTEMERGENCE, Rate 50 g/ha): 10
Plant response rating, Rape (rape; PREEMERGENCE, Rate 50 g/ha): 2
Plant response rating, Rice (rice; POSTEMERGENCE, Rate 10 g/ha): 4
Plant response rating, Rice (rice; POSTEMERGENCE, Rate 50 g/ha): 4
Plant response rating, Rice (rice; PREEMERGENCE, Rate 50 g/ha): 1
Plant response rating, Sorghum (sorghum; POSTEMERGENCE, Rate 10 g/ha): 3
Plant response rating, Sorghum (sorghum; POSTEMERGENCE, Rate 50 g/ha): 3
Plant response rating, Sorghum (sorghum; PREEMERGENCE, Rate 50 g/ha): 6
Plant response rating, Soybean (soybean; POSTEMERGENCE, Rate 10 g/ha): 9
Plant response rating, Soybean (soybean; POSTEMERGENCE, Rate 50 g/ha): 9
Plant response rating, Soybean (soybean; PREEMERGENCE, Rate 50 g/ha): 0
Plant response rating, Sugar beet (sugar beet; POSTEMERGENCE, Rate 10 g/ha): 10
Plant response rating, Sugar beet (sugar beet; POSTEMERGENCE, Rate 50 g/ha): 10
Plant response rating, Sugar beet (sugar beet; PREEMERGENCE, Rate 50 g/ha): 9
Plant response rating, Velvetleaf (velvetleaf; POSTEMERGENCE, Rate 10 g/ha): 9
Plant response rating, Velvetleaf (velvetleaf; POSTEMERGENCE, Rate 50 g/ha): 10
Plant response rating, Velvetleaf (velvetleaf; PREEMERGENCE, Rate 50 g/ha): 9
Plant response rating, Wheat (wheat; POSTEMERGENCE, Rate 10 g/ha): 7
Plant response rating, Wheat (wheat; POSTEMERGENCE, Rate 50 g/ha): 7
Plant response rating, Wheat (wheat; PREEMERGENCE, Rate 50 g/ha): 7
Plant response rating, Wild buckwheat (wild buckwheat; POSTEMERGENCE, Rate 10 g/ha): 10
Plant response rating, Wild buckwheat (wild buckwheat; POSTEMERGENCE, Rate 50 g/ha): 10
Plant response rating, Wild buckwheat (wild buckwheat; PREEMERGENCE, Rate 50 g/ha): 9
Plant response rating, Wild oat (wild oat; POSTEMERGENCE, Rate 10 g/ha): 6
Plant response rating, Wild oat (wild oat; POSTEMERGENCE, Rate 50 g/ha): 7
Plant response rating, Wild oat (wild oat; PREEMERGENCE, Rate 50 g/ha): 8
Plant response rating, Nutsedge (purple nutsedge; POSTEMERGENCE, Rate 10 g/ha): 6
Plant response rating, Nutsedge (purple nutsedge; POSTEMERGENCE, Rate 50 g/ha): 6
Plant response rating, Nutsedge (purple nutsedge; PREEMERGENCE, Rate 50 g/ha): 0

— patent US6358885B1, “Substituted phenylheterocyclic herbicides” (Mississippi State University, priority 1992, dated 2002)
